Columns and labels:
MDM2 = target: T1, MDM2 (Homo sapiens, UniProt Q00987); experiment: Western blot of HCT116 cells, MDM2 level; type: cell-based; details: Western blot (FIG. 2, FIG. 3)
T1 construct: Western blot of HCT116 cells treated with chimeric molecules; endogenous in cells; host or cells: HCT116

p53 = experiment: Western blot of HCT116 cells, p53 level; type: cell-based, human; details: Western blot (FIG. 2, FIG. 3)
androgen receptor (AR) = target: T2, androgen receptor (AR) (Homo sapiens, UniProt P10275); experiment: AR ELISA assay (degradation); type: cell-based; details: VCaP cells, 16 h
T2 construct: detects endogenous levels of total androgen receptor protein; host or cells: VCaP
T2 sequence (P10275 1-920): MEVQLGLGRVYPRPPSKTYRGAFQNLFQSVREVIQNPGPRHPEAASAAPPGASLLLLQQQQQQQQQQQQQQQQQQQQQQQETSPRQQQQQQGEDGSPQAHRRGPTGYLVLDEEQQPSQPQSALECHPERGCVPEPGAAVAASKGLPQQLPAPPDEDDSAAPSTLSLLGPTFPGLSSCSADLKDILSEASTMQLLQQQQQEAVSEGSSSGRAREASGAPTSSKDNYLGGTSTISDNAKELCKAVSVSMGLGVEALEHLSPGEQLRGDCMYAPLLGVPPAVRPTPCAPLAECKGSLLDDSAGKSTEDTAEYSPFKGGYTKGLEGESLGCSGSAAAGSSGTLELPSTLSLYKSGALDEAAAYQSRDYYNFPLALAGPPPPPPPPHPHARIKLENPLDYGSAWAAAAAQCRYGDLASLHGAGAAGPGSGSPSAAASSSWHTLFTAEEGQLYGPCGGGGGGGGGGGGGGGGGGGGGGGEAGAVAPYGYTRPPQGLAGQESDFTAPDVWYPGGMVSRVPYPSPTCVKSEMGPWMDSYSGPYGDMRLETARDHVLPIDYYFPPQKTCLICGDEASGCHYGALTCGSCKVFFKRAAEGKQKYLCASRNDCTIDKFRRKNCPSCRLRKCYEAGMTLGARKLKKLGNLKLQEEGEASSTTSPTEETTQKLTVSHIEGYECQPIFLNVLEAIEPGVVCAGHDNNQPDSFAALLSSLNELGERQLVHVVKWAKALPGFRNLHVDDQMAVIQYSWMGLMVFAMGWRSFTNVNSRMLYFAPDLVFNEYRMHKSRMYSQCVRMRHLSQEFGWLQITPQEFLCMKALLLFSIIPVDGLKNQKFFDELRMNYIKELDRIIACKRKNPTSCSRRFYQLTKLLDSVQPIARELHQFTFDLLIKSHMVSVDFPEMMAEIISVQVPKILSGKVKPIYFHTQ
Protocol: The following biological assays were performed to evaluate the protein degradation in various cell types using representative compounds disclosed. The degradation of the following proteins were evaluated: bromodomain-containing protein 4 (BRD4), androgen receptor (AR), c-Myc, c-Jun N-terminal kinases (JNK), and enhancer of zeste homolog 2 (EZH2).
VCaP cells were chased from ATCC and cultured in Dulbecco's Modified Eagle's Medium (ATCC), supplemented with 10% FBS (ATCC) and Penicillin/Streptomycin (Life Technologies). DMSO control and compound treatments (0.0001 μM to 1 μM) were performed in 96-well plates for 16 h. cells were harvested, and lysed with Cell Lysis Buffer (catalog #9803) (20 mM Tris-HCl, pH 7.5, 150 mM NaCl, 1 mM Na2EDTA, 1 mM EGTA, 1% Triton, 2.5 mM sodium pyrophosphate, 1 mM B-glycerophosphate, 1 mM Na3VO4, 1 μg/mL leupeptin. Lysates were clarified at 16,000 g for 10 minutes, and loaded into PathScan AR ELISA (Cell Signaling Catalog #12850). The PathScan Total Androgen Receptor Sanwich ELISA Kit is a solid phase sandwich enzyme-linked immunosorbent assay (ELISA) that detects endogenous levels of total androgen receptor protein. An Androgen Receptor Rabbit mAb has been coated onto the microwells. After incubation with cell lysates, androgen receptor protein is captured by the coated antibody. Following extensive washing, an Androgen receptor Mouse Detection mAbis added to detect the captured androgen receptor protein. Anti-mouse IgG, HRP-linked Antibody is then used to recognize the bound detection antibody. HRP substrate, TMB, is added to develop color. The magnitude of absorbance for the developed color is proportional to the quantity of total androgen receptor protein.

T1 sequence (Q00987 whole entry): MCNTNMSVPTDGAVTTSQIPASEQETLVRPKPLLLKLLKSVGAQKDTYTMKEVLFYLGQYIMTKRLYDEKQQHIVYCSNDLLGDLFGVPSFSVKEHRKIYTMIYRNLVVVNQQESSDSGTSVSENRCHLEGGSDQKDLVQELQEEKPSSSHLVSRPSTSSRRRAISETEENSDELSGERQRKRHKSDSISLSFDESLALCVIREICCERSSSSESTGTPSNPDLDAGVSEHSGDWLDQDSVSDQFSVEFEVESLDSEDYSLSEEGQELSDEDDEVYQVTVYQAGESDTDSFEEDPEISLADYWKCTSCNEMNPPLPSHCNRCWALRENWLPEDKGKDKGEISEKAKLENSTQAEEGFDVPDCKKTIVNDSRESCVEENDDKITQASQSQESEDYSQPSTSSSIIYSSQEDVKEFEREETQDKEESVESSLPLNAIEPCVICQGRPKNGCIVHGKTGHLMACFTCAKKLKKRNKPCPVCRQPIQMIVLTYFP

MDM2 up-regulation (MDM2)	AR degradation (%) at 1 µM (androgen receptor (AR)) [%]	Structure (SMILES)	p53 level increase (p53)
up-regulation of MDM2		COc1cc(C(=O)NCCOCCOCC(=O)N[C@H](C(=O)N2C[C@H](O)C[C@H]2C(=O)NCc2ccc(-c3scnc3C)cc2)C(C)(C)C)ccc1NC(=O)C1NC(CC(C)(C)C)C(C#N)(c2ccc(Cl)cc2F)C1c1cccc(Cl)c1F (mixture of isomers) [Compound A1877, 3-(3-chloro-2-fluorophenyl)-4-(4-chloro-2-fluorophenyl)-4-cyano-5-(2,2-dimethylpropyl)-N-[4-({2-[2-({[(2S)-1-[(2S,4R)-4-hydroxy-2-({[4-(4-methyl-1,3-thiazol-5-yl)phenyl]methyl}carbamoyl)pyrrolidin-1-yl]-3,3-dimethyl-1-oxobutan-2-yl]carbamoyl}methoxy)ethoxy]ethyl}carbamoyl)-2-methoxyphenyl]pyrrolidine-2-carboxamide]	dose dependent p53 level increase
no MDM2 up-regulation		COc1cc(C(=O)NCCOCCOCCOCCOCC(=O)N[C@H](C(=O)N2C[C@H](O)C[C@H]2C(=O)NCc2ccc(-c3scnc3C)cc2)C(C)(C)C)ccc1NC(=O)[C@H]1N[C@H](CC(C)(C)C)[C@@](C#N)(c2ccc(Cl)cc2F)[C@@H]1c1cccc(Cl)c1F (single isomer, unassigned) [Compound A1897]	no p53 level increase
	0 to 25	CC(C)(C)C[C@H]1N[C@H](C(=O)NCCOCCOCCOCCOCCOc2ccc(C(=O)N[C@H]3C(C)(C)[C@H](Oc4ccc(C#N)c(Cl)c4)C3(C)C)cc2)[C@@H](c2cccc(Cl)c2F)[C@]1(C#N)c1ccc(Cl)cc1F [Compound A1735, (2S,3R,4S,5R)-3-(3-chloro-2-fluorophenyl)-4-(4-chloro-2-fluorophenyl)-4-cyano-5-(2,2-dimethylpropyl)-N-[1-(4-{[(1r,3r)-3-(3-chloro-4-cyanophenoxy)-2,2,4,4-tetramethylcyclobutyl]carbamoyl]phenyl)-1,4,7,10,13-pentaoxapentadecan-15-yl]pyrrolidine-2-carboxamide]	
no MDM2 up-regulation		COc1cc(C(=O)NCCOCCOCC(=O)N[C@H](C(=O)N2C[C@H](O)C[C@H]2C(=O)NCc2ccc(-c3scnc3C)cc2)C(C)(C)C)ccc1NC(=O)[C@H]1N[C@H](CC(C)(C)C)[C@@](C#N)(c2ccc(Cl)cc2F)[C@@H]1c1cccc(Cl)c1F [Compound A1908]	no p53 level increase
no MDM2 up-regulation		COc1cc(C(=O)NCCOCCOCCOCC(=O)N[C@H](C(=O)N2C[C@H](O)C[C@H]2C(=O)NCc2ccc(-c3scnc3C)cc2)C(C)(C)C)ccc1NC(=O)[C@H]1N[C@H](CC(C)(C)C)[C@@](C#N)(c2ccc(Cl)cc2F)[C@@H]1c1cccc(Cl)c1F [Compound A1911, (2S,3R,4S,5R)-3-(3-chloro-2-fluorophenyl)-4-(4-chloro-2-fluorophenyl)-4-cyano-5-(2,2-dimethylpropyl)-N-{4-[(2-{2-[2-({[(2S)-1-[(2S,4R)-4-hydroxy-2-({[4-(4-methyl-1,3-thiazol-5-yl)phenyl]methyl}-carbamoyl)pyrrolidin-1-yl]-3,3-dimethyl-1-oxobutan-2-yl]carbamoyl}methoxy)-ethoxy]ethoxy}ethyl)carbamoyl]-2-methoxyphenyl}pyrrolidine-2-carboxamide]	no p53 level increase

The remaining lines, values behind:

Structure (SMILES)	MDM2 up-regulation (MDM2)	AR degradation (%) at 1 µM (androgen receptor (AR)) [%]	p53 level increase (p53)
CC(C)(C)C[C@@H]1NC(C(=O)NCCOCCOCCOCCOCCOCCOc2ccc(C(=O)N[C@H]3C(C)(C)[C@H](Oc4ccc(C#N)c(Cl)c4)C3(C)C)cc2)[C@H](c2cccc(Cl)c2F)[C@@]1(C#N)c1ccc(Cl)cc1F (stereo partly drawn) [Compound A1688, 3-(3-chloro-2-fluorophenyl)-4-(4-chloro-2-fluorophenyl)-4-cyano-5-(2,2-dimethylpropyl)-N-[1-(4-{[(1,3-trans)-3-(3-chloro-4-cyanophenoxy)-2,2,4,4-tetramethylcyclobutyl]-carbamoyl}phenyl)-1,4,7,10,13,16-hexaoxaoctadecan-18-yl]pyrrolidine-2-carboxamide]		0 to 25	
CC(C)(C)C[C@@H]1NC(C(=O)NCCOCCOCCOCCOCCOc2ccc(C(=O)N[C@H]3C(C)(C)[C@H](Oc4ccc(C#N)c(Cl)c4)C3(C)C)cc2)[C@H](c2cccc(Cl)c2F)[C@@]1(C#N)c1ccc(Cl)cc1F (stereo partly drawn) [Compound A1717, 3-(3-chloro-2-fluorophenyl)-4-(4-chloro-2-fluorophenyl)-4-cyano-5-(2,2-dimethylpropyl)-N-[1-(4-{[(1,3-trans)-3-(3-chloro-4-cyanophenoxy)-2,2,4,4-tetramethylcyclobutyl]carbamoyl}phenyl)-1,4,7,10,13-pentaoxapentadecan-15-yl]pyrrolidine-2-carboxamide]		25 to 50	
CC(C)(C)C[C@@H]1N[C@@H](C(=O)NCCOCCOCCOCCOCCOc2ccc(C(=O)N[C@H]3C(C)(C)[C@H](Oc4ccc(C#N)c(Cl)c4)C3(C)C)cc2)[C@H](c2cccc(Cl)c2F)[C@@]1(C#N)c1ccc(Cl)cc1F [Compound A1720, (2R,3S,4R,5S)-3-(3-chloro-2-fluorophenyl)-4-(4-chloro-2-fluorophenyl)-4-cyano-5-(2,2-dimethylpropyl)-N-[1-(4-{[(1,3-trans)-3-(3-chloro-4-cyanophenoxy)-2,2,4,4-tetramethylcyclobutyl]carbamoyl}phenyl)-1,4,7,10,13-pentaoxapentadecan-15-yl]pyrrolidine-2-carboxamide]		25 to 50	
CC(C)(C)CC1NC(C(=O)NCCCOCCCCCOc2ccc(N3C(=S)N(c4ccc(C#N)c(C(F)(F)F)c4)C(=O)C3(C)C)cc2)C(c2cccc(Cl)c2F)C1(C#N)c1ccc(Cl)cc1F (centres unmarked) [Compound A2434, 3-(3-chloro-2-fluorophenyl)-4-(4-chloro-2-fluorophenyl)-4-cyano-N-(3-{[5-(4-{3-[4-cyano-3-(trifluoromethyl)phenyl]-5,5-dimethyl-4-oxo-2-sulfanylideneimidazolidin-1-yl}phenoxy)pentyl]oxy}propyl)-5-(2,2-dimethylpropyl)pyrrolidine-2-carboxamide]		> 50	
COc1cc(C(=O)NCCCOCCCCCOc2ccc(N3C(=S)N(c4ccc(C#N)c(C(F)(F)F)c4)C(=O)C3(C)C)cc2)ccc1NC(=O)C1NC(CC(C)(C)C)C(C#N)(c2ccc(Cl)cc2F)C1c1cccc(Cl)c1F (centres unmarked) [Compound A2435, 3-(3-chloro-2-fluorophenyl)-4-(4-chloro-2-fluorophenyl)-4-cyano-N-{4-[(3-{[5-(4-{3-[4-cyano-3-(trifluoromethyl)phenyl]-5,5-dimethyl-4-oxo-2-sulfanylideneimidazolidin-1-yl}phenoxy)pentyl]oxy}propyl)carbamoyl]-2-methoxyphenyl}-5-(2,2-dimethylpropyl)pyrrolidine-2-carboxamide]		> 50	

From patent US12577255B2, “MDM2-based modulators of proteolysis and associated methods of use” (Arvinas Operations, Inc., priority 2015, dated 2026)
